Assay type in all cases: cell-based
The target of one assay is T1, CDK9 (Homo sapiens, UniProt P50750).
T1 construct: host or cells: HEK293-CDK9-Hibit
The assay can be described thus: HiBit Assay Protocol for CDK9 (HIBIT protein quantification, degradation). The conditions noted are these: HEK293-CDK9-Hibit cells, compound treatment for 6 hours, read-out: CDK9 HIBIT Protein Quantification Maximum. The procedure, abridged:
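Degradation read-out: luminescence after lytic HiBiT/LgBiT detection in HEK293-CDK9-HiBiT cells exposed 6 h to 10-point, 3-fold compound dilutions. Signal scaled between 0.1% DMSO-treated cells and medium alone; DC50 fitted from the curve.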
On the technique in general: The HiBiT peptide binds its large partner to form an active luciferase.

For another assay, the target named is T2, CDK2 (Homo sapiens, UniProt P24941).
T2 construct: host or cells: HEK293-CDK2-Hibit
The assay can be described thus: HiBit Assay Protocol for CDK2 (HIBIT protein quantification, degradation). The conditions noted are these: HEK293-CDK2-Hibit cells, compound treatment for 6 hours; for DC50: ABS DC50. The procedure, abridged:
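DC50 comes from a fitted curve of remaining CDK2-HiBiT luminescence, referenced to DMSO-treated cells and medium-only wells. HEK293-CDK2-HiBiT cells, plated the previous night, received compounds in a 10-point, 3-fold series for 6 h before lysis with LgBiT-containing Nano-Glo HiBiT reagent.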

In the next assay the target is T3, CCNE1 (Homo sapiens, UniProt P24864).
T3 construct: host or cells: HEK293-CCNE1-Hibit
Description: HiBit Assay Protocol for CCNE1 (HIBIT protein quantification, degradation). The conditions noted are these: HEK293-CCNE1-Hibit cells, compound treatment for 6 hours. The method in brief: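 Degradation readout: lytic Nano-Glo HiBiT luminescence after 6 h exposure of HEK293-CCNE1-HiBiT cells to 10-point, 3-fold serial dilutions. Signal was scaled between medium-only and DMSO-treated wells, and DC50 came from curve fits.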

Read-outs that look alike come from different tables or passages of the source.

T1 sequence (P50750 whole entry): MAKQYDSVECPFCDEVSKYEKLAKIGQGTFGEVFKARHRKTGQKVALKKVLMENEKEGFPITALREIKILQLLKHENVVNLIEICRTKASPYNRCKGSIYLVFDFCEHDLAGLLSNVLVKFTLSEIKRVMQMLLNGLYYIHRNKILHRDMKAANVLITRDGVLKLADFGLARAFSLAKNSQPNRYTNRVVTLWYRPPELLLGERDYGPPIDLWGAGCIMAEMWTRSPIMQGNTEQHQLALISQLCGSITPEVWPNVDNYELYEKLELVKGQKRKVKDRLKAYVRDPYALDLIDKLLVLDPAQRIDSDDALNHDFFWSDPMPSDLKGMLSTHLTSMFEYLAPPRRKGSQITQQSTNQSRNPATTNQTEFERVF
T3 sequence (P24864 whole entry): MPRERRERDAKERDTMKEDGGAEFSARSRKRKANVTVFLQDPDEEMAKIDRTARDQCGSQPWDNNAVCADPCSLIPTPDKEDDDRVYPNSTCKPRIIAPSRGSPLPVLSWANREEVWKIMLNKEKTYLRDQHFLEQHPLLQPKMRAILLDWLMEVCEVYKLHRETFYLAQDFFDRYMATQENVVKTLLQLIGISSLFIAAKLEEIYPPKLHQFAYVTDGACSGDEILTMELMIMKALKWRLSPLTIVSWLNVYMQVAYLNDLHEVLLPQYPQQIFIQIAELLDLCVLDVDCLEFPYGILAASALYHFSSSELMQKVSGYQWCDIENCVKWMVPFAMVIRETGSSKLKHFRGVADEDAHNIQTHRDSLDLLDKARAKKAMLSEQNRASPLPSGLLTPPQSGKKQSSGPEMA

For `Cc1cc(CN2CCC(c3ccc4c(N5CCC(=O)NC5=O)nn(C)c4c3)CC2)cc(S(=O)(=O)N2CCC(Nc3ncc4c(n3)N([C@@H]3CCC[C@@H](O)C3)C(=O)C43CC3)CC2)c1` [Compound 167, 1-[6-(1-{[3-(4-{7′-[(1R,3R)-3-Hydroxycyclohexyl]-6′-oxospiro[cyclopropane-1,5′-pyrrolo[2,3-d]pyrimidin]-2′-ylamino}piperidin-1-ylsulfonyl)-5-methylphenyl]methyl}piperidin-4-yl)-1-methylindazol-3-yl]-1,3-diazinane-2,4-dione], the Dmax at CDK9 (6 h) was 15%. Moreover, on CDK2, the “CDK2 HIBIT Protein Quantification Maximum” value is on record as 70% and it took 3.77 nM to reach half-maximal degradation (DC50). Further, the “CCNE1 HIBIT Protein Quantification Maximum” value on CCNE1 came out at 32%.

Regarding `Cc1ccc(S(=O)(=O)N2CCC(Nc3ncc4c(n3)N([C@@H]3CCC[C@@H](O)C3)C(=O)C43CC3)CC2)cc1CN1CCC(c2ccc3c(N4CCC(=O)NC4=O)nn(C)c3c2)CC1` [Compound 168], on CDK9 (6 h), the Dmax came to 26%. Besides, at CDK2, the “CDK2 HIBIT Protein Quantification Maximum” value came to 71% and half-maximal degradation (DC50) was put at 2.91 nM. The “CCNE1 HIBIT Protein Quantification Maximum” value at CCNE1 is 40%.

Regarding `Cn1nc(N2CCC(=O)NC2=O)c2ccc(C3CCN(Cc4cc(S(=O)(=O)N5CCC(Nc6ncc7c(n6)N([C@@H]6CCC[C@@H](O)C6)C(=O)C76CC6)CC5)ccc4F)CC3)cc21` [Compound 169, 1-[6-(1-{[2-Fluoro-5-(4-{7′-[(1R,3R)-3-hydroxycyclohexyl]-6′-oxospiro[cyclopropane-1,5′-pyrrolo[2,3-d]pyrimidin]-2′-ylamino}piperidin-1-ylsulfonyl)phenyl]methyl}piperidin-4-yl)-1-methylindazol-3-yl]-1,3-diazinane-2,4-dione], the Dmax on CDK9 (6 h) came to 10%. Further, on CDK2, the “CDK2 HIBIT Protein Quantification Maximum” value is reported as 84% and the DC50 came to 5.85 nM. Also, on CCNE1, the “CCNE1 HIBIT Protein Quantification Maximum” value amounted to 47%.

As for `Cn1nc(N2CCC(=O)NC2=O)c2ccc(C3CCN(Cc4cc(F)cc(S(=O)(=O)N5CCC(Nc6ncc7c(n6)N([C@@H]6CCC[C@@H](O)C6)C(=O)C76CC6)CC5)c4)CC3)cc21` [Compound 170, 1-[6-(1-{[3-Fluoro-5-(4-{7′-[(1R,3R)-3-hydroxycyclohexyl]-6′-oxospiro[cyclopropane-1,5′-pyrrolo[2,3-d]pyrimidin]-2′-ylamino}piperidin-1-ylsulfonyl)phenyl]methyl}piperidin-4-yl)-1-methylindazol-3-yl]-1,3-diazinane-2,4-dione], the Dmax on CDK9 was 5%. Moreover, on CDK2, the “CDK2 HIBIT Protein Quantification Maximum” value worked out at 75% and the DC50 was 3.63 nM. The “CCNE1 HIBIT Protein Quantification Maximum” value on CCNE1 is recorded as 46%.

Turning to `Cn1nc(N2CCC(=O)NC2=O)c2ccc(C3CCN(Cc4ccc(F)c(S(=O)(=O)N5CCC(Nc6ncc7c(n6)N([C@@H]6CCC[C@@H](O)C6)C(=O)C76CC6)CC5)c4)CC3)cc21` [Compound 171], the Dmax on CDK9 (6 h) is 15%. Moreover, at CDK2, the “CDK2 HIBIT Protein Quantification Maximum” value amounted to 55% and the 50% degradation concentration (DC50) turned out to be 4.43 nM. Also, the “CCNE1 HIBIT Protein Quantification Maximum” value on CCNE1 is reported as 29%.

`Cn1nc(N2CCC(=O)NC2=O)c2ccc(C3CCN(Cc4cccc(S(=O)(=O)N5CCC(Nc6ncc7c(n6)N([C@@H]6CCC[C@@H](O)C6)C(=O)C76CC6)CC5)c4F)CC3)cc21` [Compound 172]: the Dmax on CDK9 (6 h) turned out to be 17%. In addition, on CDK2, the “CDK2 HIBIT Protein Quantification Maximum” value is 74% and the 50% degradation concentration (DC50) turned out to be 4.05 nM. Besides, at CCNE1, the “CCNE1 HIBIT Protein Quantification Maximum” value is 49%.

On to `Cn1nc(N2CCC(=O)NC2=O)c2ccc(C3CCN(Cc4cccc(S(=O)(=O)N5CCC(Nc6ncc7c(n6)N([C@@H]6CCC[C@@H](O)C6)C(=O)C76CC6)CC5)c4)CC3)c(F)c21` [Compound 175, 1-[7-fluoro-6-(1-{[3-(4-{7′-[(1R,3R)-3-Hydroxycyclohexyl]-6′-oxospiro[cyclopropane-1,5′-pyrrolo[2,3-d]pyrimidin]-2′-ylamino}piperidin-1-ylsulfonyl)phenyl]methyl}piperidin-4-yl)-1-methylindazol-3-yl]-1,3-diazinane-2,4-dione], for which the Dmax on CDK9 (6 h) is 8%. Besides, at CDK2, the “CDK2 HIBIT Protein Quantification Maximum” value was found to be 78% and the DC50 was found to be 4.19 nM. Besides, the “CCNE1 HIBIT Protein Quantification Maximum” value on CCNE1 was found to be 44%.

In the case of `Cn1nc(N2CCC(=O)NC2=O)c2cc(F)c(C3CCN(Cc4cccc(S(=O)(=O)N5CCC(Nc6ncc7c(n6)N([C@@H]6CCC[C@@H](O)C6)C(=O)C76CC6)CC5)c4)CC3)cc21` [Compound 176, 1-[5-Fluoro-6-(1-{[3-(4-{7′-[(1R,3R)-3-hydroxycyclohexyl]-6′-oxospiro[cyclopropane-1,5′-pyrrolo[2,3-d]pyrimidin]-2′-ylamino}piperidin-1-ylsulfonyl)phenyl]methyl}piperidin-4-yl)-1-methylindazol-3-yl]-1,3-diazinane-2,4-dione], on CDK9 (6 h), the Dmax came to 20%. Moreover, on CDK2, the “CDK2 HIBIT Protein Quantification Maximum” value amounted to 79% and the half-maximal degradation concentration (DC50) amounted to 3.34 nM. Also, at CCNE1, the “CCNE1 HIBIT Protein Quantification Maximum” value is on record as 45%.

For `Cn1nc(N2CCC(=O)NC2=O)c2ccc(C3CCN(Cc4cccc(S(=O)(=O)N5CCC(Nc6ncc7c(n6)N([C@@H]6CCC[C@@H](O)C6)C(=O)C76CC6)CC5)c4)CC3(F)F)cc21` (stereo partly drawn) [Compound 177, 1-[6-(3,3-difluoro-1-{[3-(4-{7′-[(1R,3R)-3-hydroxycyclohexyl]-6′-oxospiro[cyclopropane-1,5′-pyrrolo[2,3-d]pyrimidin]-2′-ylamino}piperidin-1-ylsulfonyl)phenyl]methyl}piperidin-4-yl)-1-methylindazol-3-yl]-1,3-diazinane-2,4-dione], at CDK9 (6 h), the Dmax was 14%. Moreover, on CDK2, the “CDK2 HIBIT Protein Quantification Maximum” value is 81% and the DC50 was 6.51 nM. Further, the “CCNE1 HIBIT Protein Quantification Maximum” value at CCNE1 came out at 41%.

Take `Cn1nc(N2CCC(=O)NC2=O)c2ccc(C3CCN(Cc4cccc(S(=O)(=O)N5CCC(Nc6ncc7c(n6)N([C@H]6CCC[C@]6(C)O)C(=O)C76CC6)CC5)c4)CC3)cc21` [Compound 178]: at CDK9 (6 h), the Dmax came to 23%. Also, on CDK2, the “CDK2 HIBIT Protein Quantification Maximum” value stood at 75% and the 50% degradation concentration (DC50) was 1.8 nM. The “CCNE1 HIBIT Protein Quantification Maximum” value on CCNE1 was 38%.

`Cn1c(=O)n(C2CCC(=O)NC2=O)c2ccc(N3CCN(Cc4cccc(S(=O)(=O)N5CCC(Nc6ncc7c(n6)N([C@@H]6CCC[C@@H](O)C6)C(=O)C76CC6)CC5)c4)CC3)cc21` (stereo partly drawn) [Compound 179, 3-[5-(4-{[3-(4-{7′-[(1R,3R)-3-Hydroxycyclohexyl]-6′-oxospiro[cyclopropane-1,5′-pyrrolo[2,3-d]pyrimidin]-2′-ylamino}piperidin-1-ylsulfonyl)phenyl]methyl}piperazin-1-yl)-3-methyl-2-oxo-1,3-benzodiazol-1-yl]piperidine-2,6-dione]: on CDK9 (6 h), the Dmax worked out at 15%. Besides, at CDK2, the “CDK2 HIBIT Protein Quantification Maximum” value turned out to be 78% and half-maximal degradation (DC50) was put at 7.82 nM. In addition, the “CCNE1 HIBIT Protein Quantification Maximum” value at CCNE1 was 20%.

For the compound `Cn1nc(N2CCC(=O)NC2=O)c2ccc(C3CCN(Cc4cccc(S(=O)(=O)N5CCC(Nc6ncc7c(n6)N([C@@H]6CCC[C@@H](O)C6)C(=O)C76CC6)CC5)c4)CC3F)cc21` (stereo partly drawn) [Compound 180, 1-[6-(3-Fluoro-1-{[3-(4-{7′-[(1R,3R)-3-hydroxycyclohexyl]-6′-oxospiro[cyclopropane-1,5′-pyrrolo[2,3-d]pyrimidin]-2′-ylamino}piperidin-1-ylsulfonyl)phenyl]methyl}piperidin-4-yl)-1-methylindazol-3-yl]-1,3-diazinane-2,4-dione], the Dmax at CDK9 (6 h) came to 34%. Further, at CDK2, the “CDK2 HIBIT Protein Quantification Maximum” value is listed as 85% and the DC50 turned out to be 7.18 nM. Moreover, the “CCNE1 HIBIT Protein Quantification Maximum” value at CCNE1 is reported as 48%.

Turning to `Cn1c(=O)n(C2CCC(=O)NC2=O)c2cccc(N3CCN(Cc4cccc(S(=O)(=O)N5CCC(Nc6ncc7c(n6)N([C@@H]6CCC[C@@H](O)C6)C(=O)C76CC6)CC5)c4)CC3)c21` (stereo partly drawn) [Compound 181, 3-[4-(4-{[3-(4-{7′-[(1R,3R)-3-hydroxycyclohexyl]-6′-oxospiro[cyclopropane-1,5′-pyrrolo[2,3-d]pyrimidin]-2′-ylamino}piperidin-1-ylsulfonyl)phenyl]methyl}piperazin-1-yl)-3-methyl-2-oxo-1,3-benzodiazol-1-yl]piperidine-2,6-dione], on CDK9 (6 h), the Dmax is 11%. In addition, on CDK2, the “CDK2 HIBIT Protein Quantification Maximum” value amounted to 77% and it took 6.02 nM to reach half-maximal degradation (DC50). In addition, the “CCNE1 HIBIT Protein Quantification Maximum” value on CCNE1 is given as 38%.

Turning to `Cn1nc(N2CCC(=O)NC2=O)c2ccc(C3CCN(Cc4cccc(S(=O)(=O)N5CCC(Nc6ncc7c(n6)N([C@@H]6CCC[C@@H](O)C6)C(=O)C76CC6)CC5)c4)C(C)(C)C3)cc21` (stereo partly drawn) [Compound 183, 1-[6-(1-{[3-(4-{7′-[(1R,3R)-3-Hydroxycyclohexyl]-6′-oxospiro[cyclopropane-1,5′-pyrrolo[2,3-d]pyrimidin]-2′-ylamino}piperidin-1-ylsulfonyl)phenyl]methyl}-2,2-dimethylpiperidin-4-yl)-1-methylindazol-3-yl]-1,3-diazinane-2,4-dione], the Dmax on CDK9 (6 h) turned out to be 24%. Further, at CDK2, the “CDK2 HIBIT Protein Quantification Maximum” value is on record as 67% and the DC50 worked out at 2.84 nM. For the same compound, the “CCNE1 HIBIT Protein Quantification Maximum” value at CCNE1 is reported as 43%.

A word on the DC50: it is the concentration at which degradation of the target reaches its halfway point.

Source of the values: patent publication US20260070917A1, “CYCLIN DEPENDENT KINASE DEGRADERS AND METHODS OF USE THEREOF” (Differentiated Therapeutics Inc, priority 2023, published 2026).
